# Measurements taken from PMC11915801, “Evolutionary trajectory of bacterial resistance to antibiotics and antimicrobial peptides in Escherichia coli” (mSystems, 2025).
# Read-outs that look alike come from different tables or passages of the source. Where a SMILES comes first, the peptide text is derived from it.
# Key:
# [1] = tested on: antibiotic- and AMP-evolved strains of MG1655; conditions: 1.5% H2O2, 37°C, 1 h in the dark, CFU counting
# Protocol: Bacterial cells were proportionally mixed with 3% hydrogen peroxide solution and incubated at 37°C for 1 h in the dark. The reaction was terminated by adding a catalase solution with a final concentration of 1,000 U/mL. After diluting the mixture to an appropriate gradient, the drops were carried out on LB agar plates, and then the agar plates were placed in a 37°C incubator overnight for colony counting.
# CIP120 (evolved MG1655) = assay: microbe, parasite or virus in culture; format: cell-based, Escherichia coli; conditions: broth microdilution, ciprofloxacin-evolved strain
# Description: (§1) To ensure the stable resistance evolution and inheritance of MG1655 under different drugs, we randomly selected three monoclonals from the evolved strains. The final antibiotic-evolved strains were designated as AMP120, AZI120, CHL80, CIP120, DOX120, KAN80, NIT70, and TMP30, while the final AMP-evolved strains were named COL120, Ind120, Omi120, Pex120, PGLA120, Pleu120, R8120, SAAP120, LI120, and SLAP120.
# (§2) The broth microdilution method was used to measure the MIC values of antibiotics and peptides according to the Clinical and Laboratory Standards Institute guidelines. The MIC value is defined as the lowest drug concentration without visible bacteria.
# COL120 (evolved MG1655) = assay: microbe, parasite or virus in culture; format: cell-based, Escherichia coli; conditions: broth microdilution, colistin-evolved strain
# Description: as §1, §2
# KAN80 (evolved MG1655) = assay: microbe, parasite or virus in culture; format: cell-based, Escherichia coli
# Description: as §1, §2
# AMP120 (evolved MG1655) = assay: microbe, parasite or virus in culture; format: cell-based, Escherichia coli; conditions: broth microdilution, ampicillin-evolved strain
# Description: as §1, §2
# NIT70 (evolved MG1655) = assay: microbe, parasite or virus in culture; format: cell-based, Escherichia coli; conditions: broth microdilution, nitrofurantoin-evolved strain
# Description: as §1, §2
# DOX120 (evolved MG1655) = assay: microbe, parasite or virus in culture; format: cell-based, Escherichia coli; conditions: broth microdilution, doxycycline-evolved strain
# Description: as §1, §2
# AZI120 (evolved MG1655) = assay: microbe, parasite or virus in culture; format: cell-based, Escherichia coli; conditions: broth microdilution, azithromycin-evolved strain
# Description: as §1, §2
# TMP30 (evolved MG1655) = assay: microbe, parasite or virus in culture; format: cell-based, Escherichia coli; conditions: broth microdilution, trimethoprim-evolved strain
# Description: as §1, §2
# CHL80 (evolved MG1655) = assay: microbe, parasite or virus in culture; format: cell-based, Escherichia coli; conditions: broth microdilution, chloramphenicol-evolved strain
# Description: as §1, §2
# E. coli K-12 MG1655 = assay: microbe, parasite or virus in culture; format: cell-based, Escherichia coli; conditions: for MIC: Escherichia coli; for MIC of MG1655 under the pressure of the same drug, generation primary: broth microdilution (CLSI), primary MG1655 before passage; for MIC of MG1655 under the pressure of the same drug, generation 10: broth microdilution, line passaged in MH broth with sub-inhibitory drug, 12 h per passage, 37℃
# Protocol: as §2
# Eight antibiotics and ten AMPs at the sub-inhibitory concentration were prepared. A 300-µL system, including 260 µL of MH broth, 30 µL of prepared drug, and 10 µL of bacterial culture, was used for resistance passages. After 12 h of incubation at 37℃ and 200 rpm, 10 µL of the above bacterial culture was added into the new sterile drug-containing broth. MIC values of bacterial culture were determined. The drug concentration was adjusted according to the MIC value change until the end of the 120 passages.
# [2] = broth microdilution, kanamycin-evolved strain
SMILES,"MIC values of evolved MG1655, strain CIP120 (CIP120 (evolved MG1655)) [µg/mL]","MIC values of evolved MG1655, strain COL120 (COL120 (evolved MG1655)) [µg/mL]","MIC values of evolved MG1655, strain KAN80 (KAN80 (evolved MG1655); [2]) [µg/mL]","MIC values of evolved MG1655, strain AMP120 (AMP120 (evolved MG1655)) [µg/mL]","MIC values of evolved MG1655, strain NIT70 (NIT70 (evolved MG1655)) [µg/mL]","MIC values of evolved MG1655, strain DOX120 (DOX120 (evolved MG1655)) [µg/mL]","MIC values of evolved MG1655, strain AZI120 (AZI120 (evolved MG1655)) [µg/mL]","MIC values of evolved MG1655, strain TMP30 (TMP30 (evolved MG1655)) [µg/mL]","MIC values of evolved MG1655, strain CHL80 (CHL80 (evolved MG1655)) [µg/mL]","MIC of MG1655 under the pressure of the same drug, generation 20 (E. coli K-12 MG1655; as E2, generation 20) [µg/mL]","MIC of MG1655 under the pressure of the same drug, generation 30 (E. coli K-12 MG1655; as E2, generation 30) [µg/mL]","MIC of MG1655 under the pressure of the same drug, generation 40 (E. coli K-12 MG1655; as E2, generation 40) [µg/mL]","MIC of MG1655 under the pressure of the same drug, generation 50 (E. coli K-12 MG1655; as E2, generation 50) [µg/mL]","MIC of MG1655 under the pressure of the same drug, generation 60 (E. coli K-12 MG1655; as E2, generation 60) [µg/mL]","MIC of MG1655 under the pressure of the same drug, generation 70 (E. coli K-12 MG1655; as E2, generation 70) [µg/mL]","MIC of MG1655 under the pressure of the same drug, generation 80 (E. coli K-12 MG1655; as E2, generation 80) [µg/mL]","MIC of MG1655 under the pressure of the same drug, generation 90 (E. coli K-12 MG1655; as E2) [µg/mL]","MIC of MG1655 under the pressure of the same drug, generation 100 (E. coli K-12 MG1655; as E2) [µg/mL]","MIC of MG1655 under the pressure of the same drug, generation 110 (E. coli K-12 MG1655; as E2) [µg/mL]","MIC of MG1655 under the pressure of the same drug, generation 120 (E. coli K-12 MG1655; as E2) [µg/mL]",also measured
"OO [H2O2, hydrogen peroxide]",–,–,–,–,–,–,–,–,–,–,–,–,–,–,–,–,–,–,–,–,survival rate of all strains after H2O2 treatment [1]: lower than 1%
"O=C(N[C@H](CO)[C@H](O)c1ccc([N+](=O)[O-])cc1)C(Cl)Cl [CHL, Chloramphenicol]",–,–,–,–,–,–,–,–,–,–,–,–,–,–,–,–,–,–,–,–,"MIC (CIP120 (evolved MG1655); Escherichia coli): 32 µg/mL; MIC (COL120 (evolved MG1655); Escherichia coli, MG1655): 8 µg/mL; MIC (KAN80 (evolved MG1655); Escherichia coli, MG1655, broth microdilution, kanamycin-evolved strain): 2 µg/mL; collateral sensitivity of KAN80 (fold change of MIC vs wild-type MG1655) (KAN80 (evolved MG1655); MIC of KAN80 compared with MG1655): exceeding fourfold; MIC (AMP120 (evolved MG1655); Escherichia coli, MG1655): 16 µg/mL; MIC (NIT70 (evolved MG1655); Escherichia coli, MG1655): 8 µg/mL; MIC (DOX120 (evolved MG1655); Escherichia coli, MG1655): 64 µg/mL; MIC (AZI120 (evolved MG1655); Escherichia coli, MG1655): 8 µg/mL; MIC (TMP30 (evolved MG1655); Escherichia coli, MG1655): 8 µg/mL; MIC (CHL80 (evolved MG1655); Escherichia coli, MG1655): 512 µg/mL; MIC (E. coli K-12 MG1655; MG1655, 12 h, read-out: MIC of MG1655 under the pressure of the same drug, generation 10): 8 µg/mL; MIC (E. coli K-12 MG1655; MG1655, read-out: MIC of MG1655 under the pressure of the same drug, generation primary): 8 µg/mL; MIC (E. coli K-12 MG1655; MG1655, as E2, generation 20, read-out: MIC of MG1655 under the pressure of the same drug, generation 20): 16 µg/mL; MIC (E. coli K-12 MG1655; MG1655, as E2, generation 30, read-out: MIC of MG1655 under the pressure of the same drug, generation 30): 32 µg/mL; MIC (E. coli K-12 MG1655; MG1655, as E2, generation 40, read-out: MIC of MG1655 under the pressure of the same drug, generation 40): 64 µg/mL; MIC (E. coli K-12 MG1655; MG1655, as E2, generation 50, read-out: MIC of MG1655 under the pressure of the same drug, generation 50): 128 µg/mL; MIC (E. coli K-12 MG1655; MG1655, as E2, generation 60, read-out: MIC of MG1655 under the pressure of the same drug, generation 60): 256 µg/mL; MIC (E. coli K-12 MG1655; MG1655, as E2, generation 70, read-out: MIC of MG1655 under the pressure of the same drug, generation 70): 256 µg/mL; MIC (E. coli K-12 MG1655; MG1655, as E2, generation 80, read-out: MIC of MG1655 under the pressure of the same drug, generation 80): 512 µg/mL"
CC(C)C[C@H](NC(=O)[C@H](CCCCN)NC(=O)[C@H](Cc1ccccc1)NC(=O)[C@@H](NC(=O)[C@H](CCCCN)NC(=O)CNC(=O)[C@H](CC(C)C)NC(=O)[C@@H](N)Cc1ccccc1)C(C)C)C(=O)N[C@@H](C)C(=O)N[C@@H](CO)C(=O)N[C@@H](CCCCN)C(=O)N[C@H](C(=O)N[C@@H](Cc1ccccc1)C(=O)N[C@@H](CCCCN)C(=O)N[C@@H](C)C(=O)N[C@H](C(=O)N[C@@H](Cc1ccccc1)C(=O)NCC(=O)N[C@@H](CCCCN)C(=O)N[C@H](C(=O)O)C(C)C)C(C)C)C(C)C [R8] (H-FLGKVFKLASKVFKAVFGKV-OH),8,4,4,4,8,8,8,8,8,4,4,4,4,4,4,4,4,4,8,8,"MIC of MG1655 under the pressure of the same drug, generation primary (E. coli K-12 MG1655): 4 µg/mL; MIC of MG1655 under the pressure of the same drug, generation 10 (E. coli K-12 MG1655): 4 µg/mL"
"CC(C)C[C@H](NC(=O)[C@H](Cc1ccc(O)cc1)NC(=O)[C@H](Cc1c[nH]cn1)NC(=O)[C@@H](NC(=O)[C@H](CC(C)C)NC(=O)[C@H](C)NC(=O)[C@H](C)NC(=O)[C@H](CCCCN)NC(=O)CNC(=O)[C@@H](NC(=O)[C@H](Cc1c[nH]cn1)NC(=O)[C@H](CCCCN)NC(=O)CNC(=O)[C@@H](NC(=O)[C@H](Cc1c[nH]cn1)NC(=O)[C@H](C)NC(=O)[C@H](C)NC(=O)[C@H](CCCCN)NC(=O)[C@H](CCCCN)NC(=O)[C@H](Cc1ccccc1)NC(=O)[C@H](Cc1ccccc1)NC(=O)[C@H](CO)NC(=O)CNC(=O)[C@H](Cc1c[nH]c2ccccc12)NC(=O)CN)C(C)C)C(C)C)[C@@H](C)O)C(=O)O [Pleu, Pleurocidin] (H-GWGSFFKKAAHVGKHVGKAALTHYL-OH)",1,1,1,1,1,1,1,1,1,2,2,2,2,2,2,2,2,2,2,2,"MIC of MG1655 under the pressure of the same drug, generation primary (E. coli K-12 MG1655): 2 µg/mL; MIC of MG1655 under the pressure of the same drug, generation 10 (E. coli K-12 MG1655): 2 µg/mL"
